Results reported in patent publication US20240116985A1, “STAPLED PEPTIDES AND METHODS THEREOF” (priority 2020, published 2024).
≈ marks a conversion by molar mass, not a printed value. Where two headings read alike, the source gives them in different places.

How the values were obtained:
[1] = molecular target: T1, beta-catenin/TCF4 engagement (Homo sapiens, UniProt P35222); assay: Nano-BRET target engagement assay (B-cat-Halo & TCF4-Luc in HEK293 cells); assay type: cell-based
T1 construct: expressed in transfected cells; host or cells: HEK293
T1 sequence (P35222 1-781): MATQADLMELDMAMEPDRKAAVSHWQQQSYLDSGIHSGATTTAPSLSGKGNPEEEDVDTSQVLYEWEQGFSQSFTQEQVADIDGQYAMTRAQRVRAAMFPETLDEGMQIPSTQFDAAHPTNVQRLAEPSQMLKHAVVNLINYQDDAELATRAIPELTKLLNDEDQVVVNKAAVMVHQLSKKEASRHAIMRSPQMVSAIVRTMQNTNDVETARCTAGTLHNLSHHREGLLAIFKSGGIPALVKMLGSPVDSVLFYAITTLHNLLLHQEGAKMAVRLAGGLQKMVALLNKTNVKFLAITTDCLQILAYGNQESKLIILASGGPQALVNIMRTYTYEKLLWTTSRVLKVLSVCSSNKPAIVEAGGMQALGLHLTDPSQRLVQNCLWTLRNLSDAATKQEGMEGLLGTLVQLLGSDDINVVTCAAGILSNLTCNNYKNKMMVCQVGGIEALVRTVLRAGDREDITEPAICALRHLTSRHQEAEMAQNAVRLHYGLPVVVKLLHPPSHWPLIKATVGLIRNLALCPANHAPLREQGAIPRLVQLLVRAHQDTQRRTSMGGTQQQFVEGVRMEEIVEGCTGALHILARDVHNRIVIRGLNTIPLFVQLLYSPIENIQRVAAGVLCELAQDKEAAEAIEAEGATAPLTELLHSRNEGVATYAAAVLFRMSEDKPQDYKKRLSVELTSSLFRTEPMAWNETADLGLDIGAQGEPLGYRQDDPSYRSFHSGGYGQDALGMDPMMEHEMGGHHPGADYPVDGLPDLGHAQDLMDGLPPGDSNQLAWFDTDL

CHI Log D procedure = assay type: physicochemical; conditions: for chromatographic logD: pH 7.4, CHI Log D
[2] = molecular target: T2, full-length beta-Catenin (Uniprot ID P35222) (Homo sapiens, UniProt P35222); assay: Fluorescence polarization IC50 (beta-catenin / 5FAM-TCF4 10-53 competition); assay type: binding
T2 construct: 10 nM full-length beta-Catenin (Uniprot ID P35222)
T2 sequence (P35222 1-781): T1 sequence (P35222 1-781)

Solubility in PBS = assay type: physicochemical
How it was run: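 The PBS solution was ultracentrifuged and the supernatant analyzed by HPLC. Its peak area was divided by that of a 50 μM peptide DMSO reference injection and multiplied by 50 uM to give solubility.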

[3] = absolute IC50; read-out: NanoBRET Abs IC50

| SMILES | IC50 ([1]; read-out: NanoBRET Abs IC50) | chromatographic logD (CHI Log D procedure) | IC50 ([2]; read-out: beta-Catenin FP IC50) | solubility at 15 min (Solubility in PBS; Solubility (uM)) | Solubility (Solubility in PBS; Solubility (uM)) | IC50 [1, 3] | IC50 ([2]; fluorescence polarization, read-out: beta-Catenin FP IC50) | Solubility (Solubility in PBS) | IC50 ([1]; read-out: NanoBRET Abs IC50; absolute IC50) | CHI Log D (CHI Log D procedure; pH 7.4) | IC50 ([2]; read-out: FP EC50, fluorescence polarization, beta-catenin) |
| --- | --- | --- | --- | --- | --- | --- | --- | --- | --- | --- | --- |
| COCCOCCOCCOCCOCCOCCOCCOCCC(=O)NCCCC[C@@H]1NC(=O)[C@H](C)NC(=O)[C@H](CC(=O)O)NC(=O)[C@H](CC(=O)O)NC(=O)C2(CCCC=CCCCOC(=O)N3CC[C@@](C(=O)N[C@@H](Cc4ccsc4)C(=O)N[C@@H](Cc4csc5ccccc45)C(=O)N[C@@H](CCC(N)=O)C(N)=O)(C3)NC(=O)[C@H](CC(N)=O)NC(=O)[C@H](Cc3ccccc3)NC1=O)CCCC=CC[C@]1(CCCN1C(C)=O)C(=O)N[C@@H](CC(=O)O)C(=O)N[C@@H](CC(C)(C)C)C(=O)N2 (stereo partly drawn) [I-896, Ac-PL3-Asp-Npg-B5-Asp-Asp-Ala-[mPEG8]Lys-Phe-Asn-PyrS2-3Thi-BztA-Gln-NH2] | > 20000 nM | 1.45 | 22 nM | 30 µM (≈ 71.1 µg/mL) |  |  |  |  |  |  |  |
| CC(=O)N1CCC[C@]12CC=CCCCC1(CCCC=CCCCOC(=O)N3CC[C@@](C(=O)N[C@@H](Cc4ccccc4Cl)C(=O)N[C@@H](Cc4csc5ccccc45)C(=O)N[C@@H](CO)C(N)=O)(C3)NC(=O)[C@H]([C@@H](C)O)NC(=O)[C@H](Cc3ccccc3)NC(=O)[C@H](C)NC(=O)[C@H](C)NC(=O)[C@H](CC(=O)O)NC(=O)[C@H](CC(=O)O)NC1=O)NC(=O)[C@H](Cc1cccc3ccccc13)NC(=O)[C@H](CC(=O)O)NC2=O (stereo partly drawn) [I-1114, Ac-PL3-Asp-1NapA-B5-Asp-Asp-Ala-Ala-Phe-Thr-PyrS2-2C1F-BztA-Ser-NH2] | > 20000 nM | 2.49 | 20 nM |  | 28 µM (≈ 55 µg/mL) |  |  |  |  |  |  |
| CC(=O)N1CCC[C@]12CC=CCCCC1(CCCC=CCCCOC(=O)N3CC[C@@](C(=O)N[C@@H](Cc4ccccc4F)C(=O)N[C@@H](Cc4csc5ccccc45)C(=O)N[C@@H](CCC(N)=O)C(N)=O)(C3)NC(=O)[C@H]([C@@H](C)O)NC(=O)[C@H](Cc3ccccc3)NC(=O)[C@H](C)NC(=O)[C@H](C)NC(=O)[C@H](CC(N)=O)NC(=O)[C@H](CC(=O)O)NC1=O)NC(=O)[C@H](CC(C)(C)C)NC(=O)[C@H](CC(=O)O)NC2=O (stereo partly drawn) [I-1022, Ac-PL3-Asp-Npg-B5-Asp-Asn-Ala-Ala-Phe-Thr-PyrS2-2FF-BztA-Gln-NH2] | 13700 nM | 2.29 | 33 nM |  | 20 µM (≈ 38.3 µg/mL) |  |  |  |  |  |  |
| CC(=O)N1CCC[C@]12CC=CCCCC1(CCCC=CCCCOC(=O)N3CC[C@@](C(=O)N[C@@H](Cc4ccccc4)C(=O)N[C@@H](Cc4csc5ccccc45)C(=O)N[C@@H](CO)C(N)=O)(C3)NC(=O)[C@H](CO)NC(=O)[C@H](Cc3ccccc3)NC(=O)[C@H](C)NC(=O)[C@H](C)NC(=O)[C@H](CC(=O)O)NC(=O)[C@H](CC(=O)O)NC1=O)NC(=O)[C@H](CC(C)(C)C)NC(=O)[C@H](CC(=O)O)NC2=O (stereo partly drawn) [I-1099, Ac-PL3-Asp-Npg-B5-Asp-Asp-Ala-Ala-Phe-Ser-PyrS2-Phe-BztA-Ser-NH2] |  | 2.16 | 9 nM |  | 47 µM (≈ 86.7 µg/mL) | 9000 nM |  |  |  |  |  |
| CC[C@H](C)[C@@H]1NC(=O)[C@H](CC(=O)O)NC(=O)[C@]2(CC=CCCCC3(CCCC=CCCCCCC[C@@](C)(C(=O)N[C@@H](Cc4ccccc4C(N)=O)C(=O)N[C@@H](Cc4csc5ccccc45)C(=O)N[C@@H](Cc4c[nH]cn4)C(N)=O)NC(=O)[C@H](CC(N)=O)NC(=O)[C@H](Cc4ccccc4)NC(=O)[C@H](C)NC(=O)[C@H](C)NC(=O)[C@H](CCC(=O)O)NC(=O)[C@H](CC(=O)O)NC3=O)NC1=O)CCCN2C(C)=O (stereo partly drawn) [I-514, Ac-PL3-Asp-Ile-B5-Asp-Glu-Ala-Ala-Phe-Asn-S8-2CBMF-BztA-His-NH2] |  | 1.91 |  |  |  | > 20000 nM | 30 nM | 50 µM (≈ 96.1 µg/mL) |  |  |  |
| C[C@@H]1NC(=O)[C@H](C)NC(=O)[C@H](CC(=O)O)NC(=O)[C@H](CC(=O)O)NC(=O)C2(CCCC=CCCCCCC[C@@](C)(C(=O)N[C@@H](Cc3ccsc3)C(=O)N[C@@H](Cc3csc4ccccc34)C(=O)N[C@@H](CCC(N)=O)C(N)=O)NC(=O)[C@H](CC(N)=O)NC(=O)[C@H](Cc3ccccc3)NC1=O)CCCC=CC[C@]1(CCCN1C(=O)CN=[N+]=[N-])C(=O)N[C@@H](CC(=O)O)C(=O)N[C@@H](CC(C)(C)C)C(=O)N2 (stereo partly drawn) [I-1053, AzAc-PL3-Asp-Npg-B5-Asp-Asp-Ala-Ala-Phe-Asn-S8-3Thi-BztA-Gln-NH2] |  |  |  |  |  |  |  | 48 µM (≈ 92 µg/mL) | > 20000 nM | 2.381 | 11 nM |
